# Assay results: PMC10528299, “Targeting FAK/PYK2 with SJP1602 for Anti-Tumor Activity in Triple-Negative Breast Cancer” (Current Issues in Molecular Biology, 2023)
# Assays:
# Experiment in all cases: Eurofins kinase profiling
# Assay type in all cases: biochemical
# DDR2(h) = biological target: T1, DDR2(h) (Homo sapiens, UniProt Q16832); settings: read-out: residual kinase activity DDR2(h)
# T1 construct: purchased Eurofins KinaseProfiler
# T1 sequence (Q16832 22-855): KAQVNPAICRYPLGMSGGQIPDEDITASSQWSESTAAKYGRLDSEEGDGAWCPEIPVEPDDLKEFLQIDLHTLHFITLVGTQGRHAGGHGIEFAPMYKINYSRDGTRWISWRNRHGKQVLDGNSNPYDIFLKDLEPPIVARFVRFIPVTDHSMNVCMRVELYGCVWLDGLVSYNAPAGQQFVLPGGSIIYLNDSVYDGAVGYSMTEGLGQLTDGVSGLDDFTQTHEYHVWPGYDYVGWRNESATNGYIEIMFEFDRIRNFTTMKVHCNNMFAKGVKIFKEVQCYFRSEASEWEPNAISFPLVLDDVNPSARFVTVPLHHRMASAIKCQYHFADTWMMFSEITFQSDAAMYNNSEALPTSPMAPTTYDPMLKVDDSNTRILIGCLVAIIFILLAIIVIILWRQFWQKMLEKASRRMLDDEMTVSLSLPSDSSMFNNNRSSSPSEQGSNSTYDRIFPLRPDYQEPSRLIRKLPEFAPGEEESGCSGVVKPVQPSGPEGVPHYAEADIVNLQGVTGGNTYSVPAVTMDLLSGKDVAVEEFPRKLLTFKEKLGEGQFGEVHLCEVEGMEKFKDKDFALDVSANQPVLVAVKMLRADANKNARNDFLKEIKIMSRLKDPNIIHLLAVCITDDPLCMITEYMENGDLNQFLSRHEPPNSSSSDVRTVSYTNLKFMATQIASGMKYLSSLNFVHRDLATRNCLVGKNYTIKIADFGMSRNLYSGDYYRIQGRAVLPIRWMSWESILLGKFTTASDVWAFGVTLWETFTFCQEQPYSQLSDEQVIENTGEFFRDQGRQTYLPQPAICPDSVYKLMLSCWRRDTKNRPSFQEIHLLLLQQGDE
# How it was run: (§1)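 Single-point screen at 1 µM compound; radiometric read-out of kinase activity using radiolabeled phosphate, per standard KinaseProfiler protocol.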
# Pyk2(h) = biological target: T2, Pyk2(h) (Homo sapiens, UniProt Q14289); settings: read-out: residual kinase activity Pyk2(h)
# T2 construct: purchased Eurofins KinaseProfiler
# How it was run: as §1
# [1] = biological target: T3, PI3 Kinase (p110a(H1047R)/p85a)(h) (Homo sapiens, UniProt P42336, H1047R); settings: read-out: residual kinase activity PI3 Kinase (p110a(H1047R)/p85a)(h)
# T3 construct: purchased Eurofins KinaseProfiler
# How it was run: as §1
# ErbB4(h) = biological target: T4, ErbB4(h) (Homo sapiens, UniProt Q15303); settings: read-out: residual kinase activity ErbB4(h)
# T4 construct: purchased Eurofins KinaseProfiler
# How it was run: as §1
# Fes(h) = biological target: T5, Fes(h) (Homo sapiens, UniProt P07332); settings: read-out: residual kinase activity Fes(h)
# T5 construct: purchased Eurofins KinaseProfiler
# How it was run: as §1
# CK1γ3(h) = biological target: T6, CK1γ3(h) (Homo sapiens, UniProt Q9Y6M4); settings: read-out: residual kinase activity CK1γ3(h)
# T6 construct: purchased Eurofins KinaseProfiler
# How it was run: as §1
# EGFR(h) = biological target: T7, EGFR(h) (Homo sapiens, UniProt P00533); settings: read-out: residual kinase activity EGFR(h)
# T7 construct: purchased Eurofins KinaseProfiler
# How it was run: as §1
# Pim-1(h) = biological target: T8, Pim-1(h) (Homo sapiens, UniProt P11309); settings: read-out: residual kinase activity Pim-1(h)
# T8 construct: purchased Eurofins KinaseProfiler
# How it was run: as §1
# TrkC(h) = biological target: T9, TrkC(h) (Homo sapiens, UniProt Q16288); settings: read-out: residual kinase activity TrkC(h)
# T9 construct: purchased Eurofins KinaseProfiler
# How it was run: as §1
# FGFR4(h) = biological target: T10, FGFR4(h) (Homo sapiens, UniProt P22455); settings: read-out: residual kinase activity FGFR4(h)
# T10 construct: purchased Eurofins KinaseProfiler
# How it was run: as §1
# PKCη(h) = biological target: T11, PKCη(h) (Homo sapiens, UniProt P24723); settings: read-out: residual kinase activity PKCη(h)
# T11 construct: purchased Eurofins KinaseProfiler
# How it was run: as §1
# PAK4(h) = biological target: T12, PAK4(h) (Homo sapiens, UniProt O96013); settings: read-out: residual kinase activity PAK4(h)
# T12 construct: purchased Eurofins KinaseProfiler
# How it was run: as §1
# IR(h) = biological target: T13, IR(h) (Homo sapiens, UniProt P06213); settings: read-out: residual kinase activity IR(h)
# T13 construct: purchased Eurofins KinaseProfiler
# How it was run: as §1
# HIPK3(h) = biological target: T14, HIPK3(h) (Homo sapiens, UniProt Q9H422); settings: read-out: residual kinase activity HIPK3(h)
# T14 construct: purchased Eurofins KinaseProfiler
# How it was run: as §1
# [2] = biological target: T15, PI3 Kinase (p110b/p85a)(h) (Homo sapiens, UniProt P42338); settings: read-out: residual kinase activity PI3 Kinase (p110b/p85a)(h)
# T15 construct: purchased Eurofins KinaseProfiler
# How it was run: as §1
# [3] = biological target: T16, PI3 Kinase (p110a(E545K)/p85a)(h) (Homo sapiens, UniProt P42336, E545K); settings: read-out: residual kinase activity PI3 Kinase (p110a(E545K)/p85a)(h)
# T16 construct: purchased Eurofins KinaseProfiler
# How it was run: as §1
# Yes(h) = biological target: T17, Yes(h) (Homo sapiens, UniProt P07947); settings: read-out: residual kinase activity Yes(h)
# T17 construct: purchased Eurofins KinaseProfiler
# How it was run: as §1
# PDGFRα(D842V)(h) = biological target: T18, PDGFRα(D842V)(h) (Homo sapiens, UniProt P16234, D842V); settings: read-out: residual kinase activity PDGFRα(D842V)(h)
# T18 construct: purchased Eurofins KinaseProfiler
# How it was run: as §1
# TrkA(h) = biological target: T19, TrkA(h) (Homo sapiens, UniProt P04629); settings: read-out: residual kinase activity TrkA(h)
# T19 construct: purchased Eurofins KinaseProfiler
# How it was run: as §1
# EGFR(L861Q)(h) = biological target: T20, EGFR(L861Q)(h) (Homo sapiens, UniProt P00533, L861Q); settings: read-out: residual kinase activity EGFR(L861Q)(h)
# T20 construct: purchased Eurofins KinaseProfiler
# How it was run: as §1
# PKBα(h) = biological target: T21, PKBα(h) (Homo sapiens, UniProt P31749); settings: read-out: residual kinase activity PKBα(h)
# T21 construct: purchased Eurofins KinaseProfiler
# How it was run: as §1
# T9 sequence (Q16288 32-839): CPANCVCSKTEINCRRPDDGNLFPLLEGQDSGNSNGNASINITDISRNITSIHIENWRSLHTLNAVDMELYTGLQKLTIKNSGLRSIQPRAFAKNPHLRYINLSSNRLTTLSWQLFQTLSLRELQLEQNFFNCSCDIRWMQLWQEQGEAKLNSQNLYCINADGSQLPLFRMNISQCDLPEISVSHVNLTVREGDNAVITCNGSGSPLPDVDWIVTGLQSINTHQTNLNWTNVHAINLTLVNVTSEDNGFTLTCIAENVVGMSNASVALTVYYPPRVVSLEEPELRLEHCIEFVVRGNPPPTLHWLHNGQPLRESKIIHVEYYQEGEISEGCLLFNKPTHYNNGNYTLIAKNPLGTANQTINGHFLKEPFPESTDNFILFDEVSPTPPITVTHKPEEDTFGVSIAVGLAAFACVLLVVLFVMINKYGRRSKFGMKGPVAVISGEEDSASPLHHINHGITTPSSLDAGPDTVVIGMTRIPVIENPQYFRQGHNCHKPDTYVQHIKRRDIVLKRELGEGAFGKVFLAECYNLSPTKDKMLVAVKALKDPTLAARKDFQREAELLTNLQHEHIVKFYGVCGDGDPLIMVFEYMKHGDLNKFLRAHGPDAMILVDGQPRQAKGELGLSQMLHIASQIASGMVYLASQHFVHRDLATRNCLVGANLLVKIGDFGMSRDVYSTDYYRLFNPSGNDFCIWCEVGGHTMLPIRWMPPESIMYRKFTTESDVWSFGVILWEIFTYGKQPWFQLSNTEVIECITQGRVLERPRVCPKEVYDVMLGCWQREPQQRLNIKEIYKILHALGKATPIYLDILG
# T19 sequence (P04629 33-796): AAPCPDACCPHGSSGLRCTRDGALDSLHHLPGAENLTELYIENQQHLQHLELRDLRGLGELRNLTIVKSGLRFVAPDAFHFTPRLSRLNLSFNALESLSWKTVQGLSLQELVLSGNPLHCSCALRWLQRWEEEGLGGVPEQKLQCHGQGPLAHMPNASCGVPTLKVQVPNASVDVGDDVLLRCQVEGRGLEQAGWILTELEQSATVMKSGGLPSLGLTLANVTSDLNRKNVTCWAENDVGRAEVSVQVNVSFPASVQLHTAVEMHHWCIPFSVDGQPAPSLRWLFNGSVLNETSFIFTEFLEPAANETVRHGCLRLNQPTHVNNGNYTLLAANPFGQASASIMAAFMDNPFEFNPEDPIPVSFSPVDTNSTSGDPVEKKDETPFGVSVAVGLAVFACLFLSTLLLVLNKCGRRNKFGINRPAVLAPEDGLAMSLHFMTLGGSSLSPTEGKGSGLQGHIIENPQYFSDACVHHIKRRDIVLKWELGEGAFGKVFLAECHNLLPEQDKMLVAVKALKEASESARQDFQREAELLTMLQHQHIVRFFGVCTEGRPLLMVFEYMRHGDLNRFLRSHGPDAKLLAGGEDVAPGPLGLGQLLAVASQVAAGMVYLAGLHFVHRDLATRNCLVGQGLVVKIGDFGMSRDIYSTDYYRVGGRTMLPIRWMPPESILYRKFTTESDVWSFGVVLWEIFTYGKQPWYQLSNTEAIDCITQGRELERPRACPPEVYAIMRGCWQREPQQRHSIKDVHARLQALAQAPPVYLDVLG
# T13 sequence (P06213 28-1382): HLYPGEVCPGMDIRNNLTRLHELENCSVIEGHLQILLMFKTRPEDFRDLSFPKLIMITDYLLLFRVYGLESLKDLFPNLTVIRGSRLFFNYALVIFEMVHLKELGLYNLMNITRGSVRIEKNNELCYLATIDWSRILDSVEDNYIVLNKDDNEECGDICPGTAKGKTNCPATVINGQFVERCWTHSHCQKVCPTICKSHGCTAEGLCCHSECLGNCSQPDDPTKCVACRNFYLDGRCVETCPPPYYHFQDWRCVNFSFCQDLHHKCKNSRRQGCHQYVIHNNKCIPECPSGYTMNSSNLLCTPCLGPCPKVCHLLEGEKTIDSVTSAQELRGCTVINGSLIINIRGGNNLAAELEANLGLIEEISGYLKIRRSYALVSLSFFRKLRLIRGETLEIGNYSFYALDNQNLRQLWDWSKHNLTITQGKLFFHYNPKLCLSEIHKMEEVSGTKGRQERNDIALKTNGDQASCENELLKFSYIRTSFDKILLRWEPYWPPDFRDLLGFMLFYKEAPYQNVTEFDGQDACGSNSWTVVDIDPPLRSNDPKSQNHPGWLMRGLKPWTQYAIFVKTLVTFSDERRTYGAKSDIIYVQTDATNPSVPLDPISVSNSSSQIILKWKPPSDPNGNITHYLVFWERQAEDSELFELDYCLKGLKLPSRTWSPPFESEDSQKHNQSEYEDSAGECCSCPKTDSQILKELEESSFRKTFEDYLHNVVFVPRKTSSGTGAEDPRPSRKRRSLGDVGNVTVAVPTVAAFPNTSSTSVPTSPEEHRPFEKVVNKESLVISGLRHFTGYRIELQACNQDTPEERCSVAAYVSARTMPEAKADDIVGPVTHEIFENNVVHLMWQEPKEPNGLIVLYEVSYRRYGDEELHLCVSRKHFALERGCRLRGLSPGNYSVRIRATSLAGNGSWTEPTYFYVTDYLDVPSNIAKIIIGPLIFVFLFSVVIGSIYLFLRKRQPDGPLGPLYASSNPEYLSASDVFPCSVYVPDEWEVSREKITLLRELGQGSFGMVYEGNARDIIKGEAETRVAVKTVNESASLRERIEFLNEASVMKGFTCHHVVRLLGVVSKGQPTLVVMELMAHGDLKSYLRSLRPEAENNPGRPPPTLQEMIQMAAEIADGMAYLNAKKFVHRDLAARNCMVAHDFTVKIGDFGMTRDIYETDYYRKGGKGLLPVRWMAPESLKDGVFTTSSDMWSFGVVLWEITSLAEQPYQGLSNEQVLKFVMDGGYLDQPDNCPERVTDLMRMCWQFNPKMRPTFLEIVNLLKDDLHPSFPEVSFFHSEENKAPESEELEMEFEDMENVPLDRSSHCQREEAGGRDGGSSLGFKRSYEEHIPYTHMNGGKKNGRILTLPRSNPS
# T14 sequence (Q9H422 whole entry): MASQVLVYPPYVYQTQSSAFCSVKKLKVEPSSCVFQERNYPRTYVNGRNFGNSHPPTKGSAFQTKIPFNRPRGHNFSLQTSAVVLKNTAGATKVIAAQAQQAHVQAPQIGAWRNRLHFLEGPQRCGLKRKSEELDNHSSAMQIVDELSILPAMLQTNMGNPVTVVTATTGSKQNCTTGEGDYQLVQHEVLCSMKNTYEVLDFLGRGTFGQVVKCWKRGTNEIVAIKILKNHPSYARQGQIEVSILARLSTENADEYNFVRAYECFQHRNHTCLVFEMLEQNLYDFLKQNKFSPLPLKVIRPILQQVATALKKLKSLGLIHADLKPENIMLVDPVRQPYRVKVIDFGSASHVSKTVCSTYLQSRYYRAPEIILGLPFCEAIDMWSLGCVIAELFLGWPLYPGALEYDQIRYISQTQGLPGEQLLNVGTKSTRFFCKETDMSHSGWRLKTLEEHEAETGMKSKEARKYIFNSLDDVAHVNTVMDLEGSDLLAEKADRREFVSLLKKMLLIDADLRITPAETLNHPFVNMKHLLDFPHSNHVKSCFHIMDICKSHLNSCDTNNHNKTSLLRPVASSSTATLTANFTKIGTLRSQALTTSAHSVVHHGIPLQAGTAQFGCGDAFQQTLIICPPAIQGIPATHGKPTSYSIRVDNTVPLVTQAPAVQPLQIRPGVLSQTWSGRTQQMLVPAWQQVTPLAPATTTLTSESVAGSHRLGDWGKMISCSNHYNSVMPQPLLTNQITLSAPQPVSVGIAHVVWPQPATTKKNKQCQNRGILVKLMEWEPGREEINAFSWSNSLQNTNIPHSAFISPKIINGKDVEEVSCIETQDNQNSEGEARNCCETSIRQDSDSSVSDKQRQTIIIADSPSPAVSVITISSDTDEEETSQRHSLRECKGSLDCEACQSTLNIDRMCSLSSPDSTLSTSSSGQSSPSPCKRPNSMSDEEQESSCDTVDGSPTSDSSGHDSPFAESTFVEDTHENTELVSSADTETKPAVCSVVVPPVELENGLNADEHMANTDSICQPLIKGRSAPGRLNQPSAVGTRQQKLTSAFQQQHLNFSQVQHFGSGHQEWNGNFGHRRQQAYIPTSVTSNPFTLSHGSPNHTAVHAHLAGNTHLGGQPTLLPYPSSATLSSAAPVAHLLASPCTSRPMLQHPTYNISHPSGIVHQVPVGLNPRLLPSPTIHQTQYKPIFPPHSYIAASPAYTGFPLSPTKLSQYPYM
# T5 sequence (P07332 whole entry): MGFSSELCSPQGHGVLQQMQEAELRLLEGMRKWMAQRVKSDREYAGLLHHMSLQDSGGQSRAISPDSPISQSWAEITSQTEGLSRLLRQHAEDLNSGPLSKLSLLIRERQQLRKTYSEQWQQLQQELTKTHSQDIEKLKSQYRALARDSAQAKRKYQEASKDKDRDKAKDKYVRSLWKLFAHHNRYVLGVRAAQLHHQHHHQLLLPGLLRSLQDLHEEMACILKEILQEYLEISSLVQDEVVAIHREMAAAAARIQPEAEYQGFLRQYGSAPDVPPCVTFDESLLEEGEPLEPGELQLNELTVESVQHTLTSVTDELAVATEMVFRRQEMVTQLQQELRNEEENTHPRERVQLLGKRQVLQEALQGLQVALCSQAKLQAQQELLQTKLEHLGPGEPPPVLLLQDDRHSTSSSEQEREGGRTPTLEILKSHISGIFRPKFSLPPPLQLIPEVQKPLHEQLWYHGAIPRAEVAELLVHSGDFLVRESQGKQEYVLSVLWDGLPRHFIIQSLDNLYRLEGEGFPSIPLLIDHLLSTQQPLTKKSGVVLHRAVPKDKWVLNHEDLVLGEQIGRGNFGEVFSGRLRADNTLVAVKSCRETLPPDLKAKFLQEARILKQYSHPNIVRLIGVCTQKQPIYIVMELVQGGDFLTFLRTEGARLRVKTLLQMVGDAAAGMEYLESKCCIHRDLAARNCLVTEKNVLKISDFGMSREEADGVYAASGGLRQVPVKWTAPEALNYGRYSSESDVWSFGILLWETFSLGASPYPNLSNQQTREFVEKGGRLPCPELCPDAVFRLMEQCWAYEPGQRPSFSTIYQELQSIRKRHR
SMILES,remaining activity at 1 µM (DDR2(h)) [%],remaining activity at 1 µM (Pyk2(h)) [%],remaining activity at 1 µM [1] [%],remaining activity at 1 µM (ErbB4(h)) [%],remaining activity at 1 µM (Fes(h)) [%],remaining activity at 1 µM (CK1γ3(h)) [%],remaining activity at 1 µM (EGFR(h)) [%],remaining activity at 1 µM (Pim-1(h)) [%],remaining activity at 1 µM (TrkC(h)) [%],remaining activity at 1 µM (FGFR4(h)) [%],remaining activity at 1 µM (PKCη(h)) [%],remaining activity at 1 µM (PAK4(h)) [%],remaining activity at 1 µM (IR(h)) [%],remaining activity at 1 µM (HIPK3(h)) [%],remaining activity at 1 µM [2] [%],remaining activity at 1 µM [3] [%],remaining activity at 1 µM (Yes(h)) [%],remaining activity at 1 µM (PDGFRα(D842V)(h)) [%],remaining activity at 1 µM (TrkA(h)) [%],remaining activity at 1 µM (EGFR(L861Q)(h)) [%],other results
CONC(=O)c1ccccc1Nc1cc(Nc2cc(C)nn2C(C)C)ncc1Cl [GSK2256098],138,60,97,81,49,95,98,87,104,104,97,93,105,106,105,93,99,119,103,69,remaining activity at 1 µM (PKBα(h)): 105%
"CNC(=O)c1ccc(Nc2ncc(C(F)(F)F)c(NCc3nccnc3N(C)S(C)(=O)=O)n2)cc1 [VS-6063, Defactinib]",94,6,101,104,7,84,105,86,13,104,104,42,62,54,103,100,56,87,2,128,remaining activity at 1 µM (PKBα(h)): 101%
"CNC(=O)c1cccc(C)c1Nc1nc(Nc2ccc(N3CCN(C4C5CC6CC4CC(O)(C6)C5)CC3)cc2OC)ncc1C(F)(F)F (stereo not drawn) [SJP1602, 2-((2-((4-(4-((2s,5r)-5-hydroxyadamantan-2-yl)piperazin-1-yl)-2-methoxyphenyl)amino)-5-(trifluoromethyl)pyrimidin-4-yl)amino)-N,3-dimethylbenzamide]",102,4,97,99,54,88,112,87,120,102,95,85,103,100,100,98,84,141,109,120,remaining activity at 1 µM (PKBα(h)): 100%
